Where two headings read alike, the source gives them in different places.
Target: T1, ACE (Rattus norvegicus, UniProt P47820)
T1 construct: After the removal of the lungs from SHR, the lung tissue was homogenized; from tissue; host or cells: lung homogenate of spontaneously hypertensive rats (SHR)
T1 sequence (P47820 36-1313): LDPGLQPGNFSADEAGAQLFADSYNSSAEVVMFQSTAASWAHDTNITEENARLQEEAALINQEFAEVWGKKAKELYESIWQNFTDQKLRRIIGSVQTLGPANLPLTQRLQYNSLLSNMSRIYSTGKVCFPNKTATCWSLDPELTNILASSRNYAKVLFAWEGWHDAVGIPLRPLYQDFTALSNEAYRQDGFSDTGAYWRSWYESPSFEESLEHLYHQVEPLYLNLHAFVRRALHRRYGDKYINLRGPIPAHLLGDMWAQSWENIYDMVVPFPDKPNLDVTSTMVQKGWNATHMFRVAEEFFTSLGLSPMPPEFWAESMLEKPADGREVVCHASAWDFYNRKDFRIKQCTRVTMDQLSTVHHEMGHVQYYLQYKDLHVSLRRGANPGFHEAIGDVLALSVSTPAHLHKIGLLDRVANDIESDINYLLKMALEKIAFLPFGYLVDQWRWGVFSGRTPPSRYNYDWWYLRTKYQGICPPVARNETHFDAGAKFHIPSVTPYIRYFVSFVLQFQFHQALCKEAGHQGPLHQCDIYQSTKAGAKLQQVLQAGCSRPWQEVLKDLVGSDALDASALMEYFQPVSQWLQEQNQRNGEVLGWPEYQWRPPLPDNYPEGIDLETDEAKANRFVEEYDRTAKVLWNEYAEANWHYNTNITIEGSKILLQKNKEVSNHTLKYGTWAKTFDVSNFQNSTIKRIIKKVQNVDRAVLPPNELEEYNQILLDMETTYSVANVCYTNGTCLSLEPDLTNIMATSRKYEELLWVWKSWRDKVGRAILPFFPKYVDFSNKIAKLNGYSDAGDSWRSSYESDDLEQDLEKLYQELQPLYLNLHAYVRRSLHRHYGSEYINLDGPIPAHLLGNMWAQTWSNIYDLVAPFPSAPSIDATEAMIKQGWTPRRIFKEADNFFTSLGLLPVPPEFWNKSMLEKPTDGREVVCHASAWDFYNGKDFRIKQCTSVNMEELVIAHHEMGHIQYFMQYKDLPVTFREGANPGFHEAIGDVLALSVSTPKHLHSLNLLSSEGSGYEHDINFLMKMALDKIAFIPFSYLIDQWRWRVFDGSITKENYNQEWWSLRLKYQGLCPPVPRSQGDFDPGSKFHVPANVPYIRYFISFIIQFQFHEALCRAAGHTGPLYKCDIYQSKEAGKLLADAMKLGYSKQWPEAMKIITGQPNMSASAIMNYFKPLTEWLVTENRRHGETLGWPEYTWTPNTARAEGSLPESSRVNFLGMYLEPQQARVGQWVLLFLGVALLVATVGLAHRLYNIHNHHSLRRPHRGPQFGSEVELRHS
Assay: Ex vivo ACE-inhibitory activity in lung homogenates of treated SHR (radiometric, [3H]Hyp-Gly-Gly)
Set-up: species or system spontaneously hypertensive rats (SHR)
Conditions: SHR lungs; for inhibition at 30 µmol/kg: oral 30 µmoles/kg
Experimental: The ex-vivo ACE/NEP-inhibitory activity, in particular, was determined by evaluating the enzymatic activity in tissue homogenates (lung and kidney for ACE and NEP activity, respectively) from spontaneously hypertensive rats (SHR) treated with the tested compounds by intravenous or oral route.
The ex vivo ACE-inhibitory activity was evaluated by using a radiometric assay method, as reported in the literature by J. W. Ryan et al. in Biochem. J. (1977), 167, 501-504.
The inhibitory activity of the compounds of formula I was evaluated in lungs of spontaneously hypertensive rats (SHR), 5 minutes after i.v. injection (0.6 and 21 µmoles/kg) and 30 minutes, 60 minutes and 4 hours after oral administration (30 µmoles/kg) of the tested compounds.
After the removal of the lungs from SHR, the lung tissue was homogenized and incubated for 2 hours at 37°C in the presence of [^3H]Hyp-Gly-Gly, as a substrate.
The reaction was stopped by adding hydrochloric acid.
The released radiolabelled hyppuric acid was extracted with ethyl acetate and counted by liquid scintillation spectrometry, according to conventional methods.
The ACE-inhibitory activity of the tested compounds was expressed as percentage of ACE-inhibition in SHR lungs.

O=C(N[C@@H](Cc1ccc(-c2nccs2)cc1)C(=O)O)[C@@H](CS)Cc1ccccc1 [Compound 16, N-[(2S)-3-mercapto-2-phenylmethylpropionyl]-4-(2-thiazolyl)-L-phenylalanine]
inhibition at 30 µmol/kg (30 minutes after administration, read-out: ACE-inhibition (lungs) 30 minutes): 60% | inhibition at 30 µmol/kg (60 minutes after administration, read-out: ACE-inhibition (lungs) 60 minutes): 36% | inhibition at 30 µmol/kg (4 hours after administration, read-out: ACE-inhibition (lungs) 4 hours): 45% | inhibition at 0.6 µmol/kg (iv, i.v. 0.6 µmoles/kg, 5 minutes after injection): 15% | inhibition at 21 µmol/kg (iv, i.v. 21 µmoles/kg, 5 minutes after injection): 72%

Source: patent publication EP0877740B1, “THIOL DERIVATIVES WITH METALLOPEPTIDASE INHIBITORY ACTIVITY” (ZAMBON GROUP S.p.A., priority 1995, dated 1997)
